Assays:
MAL^TIR = target: T1, MAL^TIR (Homo sapiens, UniProt P58753); assay: T‐Surf phage library (P8 and P3) selection against MAL^TIR, four rounds, NGS read counts; type: binding; conditions: for P8_MAL Rank (after) / P8_MAL Rank (before): P8 library; for P3_MAL Rank (after) / P3_MAL Rank (before): P3 library
T1 construct: MAL (residues 79–221); 6xHis; made in house; host or cells: E. coli BL21 (DE3)
Description: T‐Surf libraries were screened against the immobilized TIR domains of two major human TLR adaptor proteins, MAL^TIR and MyD88^TIR, allowing cross‐species selection of TIR‐binding motifs with 190 946 TIR‐derived peptides in a single binding assay (Scheme 1). Enriched phage pools from the fourth round of selection were analyzed using NGS after barcoding the peptide‐coding regions of the phage pools.
Phage display screening was performed by coating two wells of a 96‐well plate (Maxisorp, Thermo Fisher Scientific) with 100 µL of 5 µg mL^−1 TIR domains overnight; then, the coated wells were blocked with 200 µL of blocking buffer (0.2% BSA in PBS) and set aside for 1 h at 4 °C with gentle shaking. Next, 100 µL of the phage library was added to the wells and incubated for 1 h at room temperature (RT; 20 – 22 °C) with gentle shaking. The plate was washed four times with PBS containing 0.5% Tween‐20; the bound phages were eluted by adding 100 µL of 100 mM HCl to each well. The elute was neutralized with 10 µL of 1.0 M Tris‐HCl (pH 11.0). E. coli TG1 cells were grown to the log phase (A600 = ≈0.6), and 1 mL of the culture was incubated with 100 µL of the eluted phages for 30 min at 37 °C, with shaking at 200 rpm. Next, 1 µL of M13KO7 helper phages was added, followed by incubation for 45 min at 37 °C, with shaking. Subsequently, the cells were transferred to 25 mL of 2× yeast extract tryptone/carbenicillin/kanamycin medium and incubated overnight at 37 °C with shaking at 200 rpm. The amplified phages were precipitated with 20% PEG‐8000/2.5 M NaCl to be used for the next round of selection.
The naïve T‐Surf libraries in P8 and P3 and the enriched phage pools after four rounds were barcoded for NGS as previously described.^[ [59] ^] Briefly, 5 µL of the phage pool was used as a template for 20 cycles of a 50 µL PCR reaction using […] each of forward and reverse barcoded primers and PrimeSTAR Max DNA Polymerase. The PCR products were purified using Expin Gel SV (GeneAll). The NGS samples were quantified using qPCR, following the qPCR Quantification Protocol Guide (KAPA Library Quantification kits for Illumina Sequencing Platform), and qualified using the TapeStation High Sensitivity D1000 ScreenTape (Agilent Technologies). The indexed libraries were further sequenced by Macrogen (Seoul, Republic of Korea) using the NovaSeq platform (Illumina) with 100 bp paired‐end reads. The reads were demultiplexed by barcodes and filtered for an average Phred quality score of at least 30, followed by trimming the flanking consensus sequences using Cutadapt (version 2.3). Peptide sequence populations were analyzed according to the read counts.

MyD88^TIR = target: T2, MyD88^TIR (Homo sapiens, UniProt Q99836); assay: T‐Surf phage library (P8 and P3) selection against MyD88^TIR, four rounds, NGS read counts; type: binding; conditions: for P3_MyD88 Rank (after) / P3_MyD88 Rank (before): P3 library; for P8_MyD88 Rank (after) / P8_MyD88 Rank (before): P8 library; for Population: 4th round of selection against MyD88 TIR, share of NGS reads
T2 construct: MyD88 (residues 148–296); 6xHis; made in house; host or cells: E. coli BL21 (DE3)
T2 sequence (Q99836 148-296): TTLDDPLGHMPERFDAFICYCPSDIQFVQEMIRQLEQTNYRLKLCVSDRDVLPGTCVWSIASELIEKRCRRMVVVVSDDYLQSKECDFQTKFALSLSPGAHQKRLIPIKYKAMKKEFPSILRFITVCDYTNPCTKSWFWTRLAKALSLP
How it was run: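 Library of 190 946 TIR‐derived peptides on P8 or P3 was panned on immobilized TIR domain coated at 5 µg mL^−1, BSA‐blocked, 1 h binding at RT, PBS/0.5% Tween‐20 washes, HCl elution, TG1 amplification. Fourth‐round pools were PCR‐barcoded, sequenced (100 bp paired‐end, Phred ≥30), and peptides ranked by read counts.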

[1] = P8_MAL: rank by count after grouping
[2] = P8_MAL: rank by count before grouping
[3] = selection against MAL, rank after grouping
[4] = selection against MAL, rank before grouping
[5] = selection against MAL TIR, rank by count after grouping
[6] = selection against MAL TIR, rank by count before grouping
[7] = P3_MAL: rank by count after grouping
[8] = P3_MAL: rank by count before grouping
[9] = selection against MAL, rank by count after grouping
[10] = selection against MAL, rank by count before grouping
[11] = P8_MyD88: rank by count after grouping
[12] = P8_MyD88: rank by count before grouping
[13] = selection against MyD88, rank by count after grouping
[14] = selection against MyD88, rank by count before grouping
[15] = selection against MyD88 TIR, rank by count after grouping
[16] = selection against MyD88 TIR, rank by count before grouping
[17] = P3_MyD88: rank by count after grouping
[18] = P3_MyD88: rank by count before grouping
[19] = selection against MyD88, rank after grouping
[20] = selection against MyD88, rank before grouping
[21] = P8_MyD88: rank by NGS read count after grouping
[22] = P8_MyD88: rank by NGS read count before grouping

T1 sequence (P58753 79-221): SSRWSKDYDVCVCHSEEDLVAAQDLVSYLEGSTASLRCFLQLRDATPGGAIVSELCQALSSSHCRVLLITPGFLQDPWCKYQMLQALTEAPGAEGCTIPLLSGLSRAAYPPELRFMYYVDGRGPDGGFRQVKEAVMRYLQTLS

AFFCAQLKRVLGNPTM
Rank (after) (MAL^TIR; [1]): 102 | Rank (before) (MAL^TIR; [2]): 1724

SFLHFLLFSRPETASI
P8_MAL Rank (after) (MAL^TIR; 4R selection against MAL, rank after grouping): 642 | P8_MAL Rank (before) (MAL^TIR; 4R selection against MAL, rank before grouping): 1437

LKVESWRQALEKAGT
P3_MAL Rank (after) (MAL^TIR; [3]): 549 | P3_MAL Rank (before) (MAL^TIR; [4]): 2274

AFLYTFLINLTHKPTF
P8_MAL Rank (after) (MAL^TIR; [5]): 228 | P8_MAL Rank (before) (MAL^TIR; [6]): 1866

LFFWDSLKQLMRSDGR
P8_MAL Rank (after) (MAL^TIR; [5]): 283 | P8_MAL Rank (before) (MAL^TIR; [6]): 2070

KGLTEIADLKGKKCDR
P3_MAL Rank (after) (MAL^TIR; [3]): 529 | P3_MAL Rank (before) (MAL^TIR; [4]): 3531

SSFREGLWRLLELSK
Rank (after) (MAL^TIR; [7]): 131 | Rank (before) (MAL^TIR; [8]): 369

RNIVAYPFQALANIGI
Rank (after) (MAL^TIR; [1]): 437 | Rank (before) (MAL^TIR; [2]): 2252

LSGWAFKRGSCAEYEY
Rank (after) (MAL^TIR; [7]): 398 | Rank (before) (MAL^TIR; [8]): 2188

ESILNHPRRSSQILSN
P3_MAL Rank (after) (MAL^TIR; [3]): 516 | P3_MAL Rank (before) (MAL^TIR; [4]): 2047

LVAHEISKKMNIFATV
P3_MAL Rank (after) (MAL^TIR; [9]): 764 | P3_MAL Rank (before) (MAL^TIR; [10]): 2101

AFFWAICIMRWCRRAF
P8_MAL Rank (after) (MAL^TIR; [9]): 708 | P8_MAL Rank (before) (MAL^TIR; [10]): 1656

ALFWEQLRTVLGKLTM
Rank (after) (MAL^TIR; [1]): 435 | Rank (before) (MAL^TIR; [2]): 1924

TFLGHLYNTLVHAGTH
Rank (after) (MAL^TIR; [1]): 397 | Rank (before) (MAL^TIR; [2]): 2600

AFLGTAAYRAGQTDD
Rank (after) (MAL^TIR; [1]): 430 | Rank (before) (MAL^TIR; [2]): 1777

AFLYTFLNNLTHPTKF
Rank (after) (MAL^TIR; [1]): 94 | Rank (before) (MAL^TIR; [2]): 1870

SSFREGLRRMLELTKI
P3_MAL Rank (after) (MAL^TIR; [3]): 515 | P3_MAL Rank (before) (MAL^TIR; [4]): 3176

RGLLSQLRHHLQAKDH
P3_MAL Rank (after) (MAL^TIR; [3]): 578 | P3_MAL Rank (before) (MAL^TIR; [4]): 2421

DPQDLVWYYERLVSLF
Rank (after) (MyD88^TIR; [11]): 410 | Rank (before) (MyD88^TIR; [12]): 2717

ASSSFALDQLSYFLSL
Rank (after) (MyD88^TIR; [11]): 189 | Rank (before) (MyD88^TIR; [12]): 243

LVAHEISKMMKVFATI
P3_MyD88 Rank (after) (MyD88^TIR; [13]): 694 | P3_MyD88 Rank (before) (MyD88^TIR; [14]): 2285

WALNELLEIMQAKRDL
P8_MyD88 Rank (after) (MyD88^TIR; [15]): 258 | P8_MyD88 Rank (before) (MyD88^TIR; [16]): 429

DHHLDLPRGKAIKLEILG
Population (MyD88^TIR; P3_MyD88 pool: P3 T-Surf phage library): 0.00437%

DPQDLLRFYEHLVSLF
Rank (after) (MyD88^TIR; [11]): 472 | Rank (before) (MyD88^TIR; [12]): 2901

SSFRESLWRLLALNKR
Rank (after) (MyD88^TIR; [17]): 395 | Rank (before) (MyD88^TIR; [18]): 3228

YIIWFEDIQLIHLLCD
P8_MyD88 Rank (after) (MyD88^TIR; [19]): 564 | P8_MyD88 Rank (before) (MyD88^TIR; [20]): 2108

DPQDLGWFYERLVSLF
Population (MyD88^TIR; P8_MyD88 pool: P8 T-Surf phage library): 0.00617%

IAADHLSYLGRLLLSR
Rank (after) (MyD88^TIR; [21]): 885 | Rank (before) (MyD88^TIR; [22]): 3614

DHHLDLLRGIAIKLEILG
P3_MyD88 Rank (after) (MyD88^TIR; [13]): 722 | P3_MyD88 Rank (before) (MyD88^TIR; [14]): 1998

EWIREQLRPELQERLP
Rank (after) (MyD88^TIR; [17]): 179 | Rank (before) (MyD88^TIR; [18]): 2160

DPQDHYLLYERLVSLF
Rank (after) (MyD88^TIR; [21]): 934 | Rank (before) (MyD88^TIR; [22]): 2964

DHHLDLPRGKAINRKFW
Rank (after) (MyD88^TIR; [17]): 102 | Rank (before) (MyD88^TIR; [18]): 355

DHHLDLPRGKAIKE
P3_MyD88 Rank (after) (MyD88^TIR; [19]): 550 | P3_MyD88 Rank (before) (MyD88^TIR; [20]): 2017

DPQDLQWSYERLVSRI
Rank (after) (MyD88^TIR; [21]): 938 | Rank (before) (MyD88^TIR; [22]): 2939

YYLDPSHLRKQRGEVD
Rank (after) (MyD88^TIR; [17]): 418 | Rank (before) (MyD88^TIR; [18]): 1439

DPQDLDWFYERLFTQM
P8_MyD88 Rank (after) (MyD88^TIR; [15]): 267 | P8_MyD88 Rank (before) (MyD88^TIR; [16]): 2763

— article PMC11714206, “Massively Parallel Screening of Toll/Interleukin‐1 Receptor (TIR)‐Derived Peptides Reveals Multiple Toll‐Like Receptors (TLRs)‐Targeting Immunomodulatory Peptides” (Advanced Science, 2024)
